Where two headings read alike, the source gives them in different places.
What was measured:
[1] = test system: 5177 transformed tobacco lines and control lines; assay: Norflurazon resistance analysis (watering with Norflurazon solution); format: in vivo; conditions: 3 μM Norflurazon solution
Description: An experiment was set up to determine the efficacy of the Crt I trait with respect to resistance to the herbicide Norflurazon. Three 5177 transformed lines, 74-1B-P, 74-2-A, and 74-7-C and three control lines were planted. Plants were grown for seven weeks and then watered with a 3 μM Norflurazon solution. Plants negative for the presence of the crtI plastid-borne gene were bleached by Norflurazon treatment, positive plants stayed green and continued to grow.

[2] = test system: nontransgenic wild type tobacco control, Havanna; assay: In vitro glyphosate tolerance: shoot regeneration from leaf explants on TSO medium with glyphosate; format: cell-based, Nicotiana tabacum cv. Havana; conditions: for Number Regenerating 3 Weeks / Number Regenerating 6 Weeks: 10 explants
Description: (§1) A transplastomic tobacco line homoplasmic for the construct pMON38773 was tested in vitro to determine the highest level of glyphosate tolerance. Explant tissue was prepared from leaf pieces of nontransgenic wild type tobacco control, Havanna, plants and the homoplasmic tobacco line 38773-6 and cultured for regeneration of shoots on TSO medium (described above) supplemented with glyphosate levels of 50 μM, 75 μM, 100 μM, 150 μM and 200 μM. The number of explants producing shoots was determined at 3 weeks and 6 weeks after explant preparation and culturing on glyphosate containing medium.

[3] = test system: homoplasmic tobacco line 38773-6; assay: as above; format: cell-based, Nicotiana tabacum cv. Havana
Description: as §1

[4] = test system: Homoplasmic tobacco plants of the line 38773-6; assay: Whole plant glyphosate spray test (track sprayer); format: in vivo
Description: (§2) Homoplasmic tobacco plants of the line 38773-6 are sprayed with glyphosate using a track sprayer at concentrations corresponding to 0 oz/acre, 16 oz/acre, 32 oz/acre and 64 oz/acre to test for whole plant tolerance. Plant height was measured before and after s praying with glyphosate. The vegetative injury data was collected two weeks after spraying, while the reproductive injury data was collected at plant maturity.
(§3) Tolerance is characterized by the continued growth and greening of tissues sprayed with glyphosate. However, as the concentration of glyphosate applied increased, there was a corresponding increase in the level of vegetative injury.

[5] = test system: Wild type tobacco (nontransformed control plants); assay: Whole plant glyphosate spray test (track sprayer); format: in vivo
Description: as §2, §3

[6] = test system: transplastomic tobacco lines containing EPSPS genes; assay: In vitro glyphosate selection of shoots from plastid transformation with EPSPS constructs; format: cell-based
Description: as §1
Additional transplastomic lines were tested in vitro for glyphosate tolerance as bed above.
The numbers in parentheses are the number of shoots resistant to selection at 1 mM glyphosate.

[7] = target: T1, EPSPS enzyme (Agrobacterium sp., UniProt Q9R4E4); format: biochemical
T1 construct: from tissue; host or cells: extracts of wild-type and transplastomic tobacco plants
Description: (§4) Methods for the analysis of EPSPS enzyme activity are described in Padgette et al. (J. Biol. Chem. (1988)263:1798-1802 and Arch. Biochem. Biophys. (1987)258:564-573) and Wibbenmeyer et al. (Biochem. Biophys. Res. Commun. (1988)153:760-766).
(§5) In addition, other transplastomic lines were analyzed for tolerance to spraying with various levels of glyphosate as described above. Specific activity is measured as the amount of exogenously added Phosphoenol pyruvate (PEP) converted to […] per unit protein in the plant extract. Addition of glyphosate tests sensitivity of the EPSPS enzyme to glyphosate.

[8] = test system: EPSPS enzyme; format: biochemical
Description: as §4, §5

[9] = test system: transplastomic (and nuclear pMON10154) tobacco lines expressing EPSPS; assay: Glyphosate spray tolerance of other lines expressing EPSPS; format: in vivo
Description: as §2, §5

[10] = test system: Nb2 cell line; assay: Nb2 cell proliferation bioactivity assay (MTS); format: cell-based; conditions: pH adjusted and centrifuged extract of pMON38794 tobacco, 48 hrs, MTS (FIG. 5)
Description: Bioactivity of the pH adjusted and centrifuged extract was tested using cells from an Nb2 cell line. These cells proliferate in the presence of growth hormone and other […] type compounds. The assay involves putting various concentrations of growth hormone-containing extract into a 96 well plate. Then a constant amount of cells are added to each well. The plate is incubated for 48 hrs and then a reagent called MTS is added. Metabolizing cells take up the MTS and convert it to a blue colored substance. The more cells there are the more blue color in the well. The blue color is measured using a spectrophotometer. The number of cells should be proportional to the concentration of growth hormone in the media. At some high concentration one expects that the cells will become saturated with growth hormone and that the dose response will level off. At very low hGH concentrations essentially no enhanced growth is seen.

[11] = line 38773-6, glyphosate 50 μM, 8 explants
[12] = line 38773-6, glyphosate 75 μM, 18 explants
[13] = line 38773-6, glyphosate 100 μM, 17 explants
[14] = line 38773-6, glyphosate 150 μM, 18 explants
[15] = line 38773-6, glyphosate 200 μM, 16 explants
[16] = line pMON10154 (nuclear), glyphosate spray
[17] = line pMON30123, glyphosate spray
[18] = line pMON30130, glyphosate spray
[19] = line pMON38773, glyphosate spray
[20] = line pMON38798, glyphosate spray
[21] = line pMON45201, glyphosate spray

T1 sequence (Q9R4E4 whole entry): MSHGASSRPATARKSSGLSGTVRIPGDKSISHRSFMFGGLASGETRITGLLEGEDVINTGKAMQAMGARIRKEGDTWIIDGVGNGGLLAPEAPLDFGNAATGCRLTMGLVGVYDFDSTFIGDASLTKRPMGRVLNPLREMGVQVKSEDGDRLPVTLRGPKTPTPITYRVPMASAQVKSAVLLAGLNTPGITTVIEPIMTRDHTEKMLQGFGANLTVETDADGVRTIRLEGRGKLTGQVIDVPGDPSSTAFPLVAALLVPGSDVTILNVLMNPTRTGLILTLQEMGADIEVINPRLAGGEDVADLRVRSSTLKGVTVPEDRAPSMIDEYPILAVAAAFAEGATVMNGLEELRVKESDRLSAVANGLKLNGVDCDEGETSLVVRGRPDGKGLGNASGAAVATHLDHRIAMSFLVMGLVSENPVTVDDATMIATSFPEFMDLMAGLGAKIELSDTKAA

## CNc1cnn(-c2cccc(C(F)(F)F)c2)c(=O)c1Cl [Norflurazon]
[1]; control plants
  Norflurazon resistance: susceptible
[1]; line 74-1B-P (homoplasmic 5177)
  Result (Norflurazon resistance): Resistant
[1]; line 74-2-A (homoplasmic 5177)
  Result (Norflurazon resistance): Resistant
[1]; line 74-7-C (homoplasmic 5177)
  Result (Norflurazon resistance): Resistant
[1]; line 75-5D-A (Control)
  Result (Norflurazon resistance): Susceptible
[1]; line 2560A Xanthi (Control)
  Result (Norflurazon resistance): Susceptible
[1]; line Xanthi (Control), plants grown seven weeks
  Result (Norflurazon resistance): Susceptible
[1]; three homoplasmic 5177 tobacco lines
  Norflurazon resistance: resistant

## O=C(O)CNCP(=O)(O)O [glyphosate, N-phosphonomethylglycine]
[2]; glyphosate 50 μM
  % Explant Regeneration: 0%
  Number Regenerating 3 Weeks: 0
  Number Regenerating 6 Weeks: 0
[2]; glyphosate 75 μM
  % Explant Regeneration: 0%
  Number Regenerating 3 Weeks: 0
  Number Regenerating 6 Weeks: 0
[2]; glyphosate 100 μM
  % Explant Regeneration: 0%
  Number Regenerating 3 Weeks: 0
  Number Regenerating 6 Weeks: 0
[2]; glyphosate 150 μM
  % Explant Regeneration: 0%
  Number Regenerating 3 Weeks: 0
  Number Regenerating 6 Weeks: 0
[2]; glyphosate 200 μM
  % Explant Regeneration: 0%
  Number Regenerating 3 Weeks: 0
  Number Regenerating 6 Weeks: 0
[3]; line 38773-6, glyphosate 50 μM
  % Explant Regeneration: 100%
[3]; [11]
  Number Regenerating 3 Weeks: 5
  Number Regenerating 6 Weeks: 8
[3]; line 38773-6, glyphosate 75 μM
  % Explant Regeneration: 100%
[3]; [12]
  Number Regenerating 3 Weeks: 14
  Number Regenerating 6 Weeks: 18
[3]; line 38773-6, glyphosate 100 μM
  % Explant Regeneration: 88%
[3]; [13]
  Number Regenerating 3 Weeks: 12
  Number Regenerating 6 Weeks: 15
[3]; line 38773-6, glyphosate 150 μM
  % Explant Regeneration: 89%
[3]; [14]
  Number Regenerating 3 Weeks: 10
  Number Regenerating 6 Weeks: 16
[3]; line 38773-6, glyphosate 200 μM
  % Explant Regeneration: 86%
[3]; [15]
  Number Regenerating 3 Weeks: 8
  Number Regenerating 6 Weeks: 15
[3]; tobacco expressing EPSPS in plastids (pMON38773), shoot regeneration
  glyphosate level tolerated in vitro: at least 200 μM
[4]; initial results, homoplasmic tobacco lines sprayed
  glyphosate concentration tolerated (vegetative tissue injury): 16 oz/acre
[4]; transplastomic lines, spray
  glyphosate rate with a good level of tolerance: 32 oz/acre
[5]; Wild-type, glyphosate spray
  Reproductive tolerance (oz/acre): 0 oz/acre
  Vegetative tolerance (oz/acre): 0 oz/acre
[5]; nontransformed control plants, glyphosate concentrations as low as 16 oz/acre
  susceptibility to sprayed glyphosate: highly susceptible
[6]; in vitro selection, Table 5 lines
  glyphosate selection level tolerated by generated tobacco lines: 1 mM
[6]; pMON38766 (T7), 6 Spec/strep (+) shoots
  No. of shoots Gly 50 uM(+): 0
[6]; pMON38766 (Wild), 1 Spec/strep (+) shoot
  No. of shoots Gly 50 uM(+): 0
[6]; pMON38773 (Wild), 9 Spec/strep (+) shoots
  No. of shoots Gly 50 uM(+): 5
[6]; pMON38773 (Wild), number in parentheses
  No. of shoots positive at 1 mM glyphosate: 1
[6]; pMON38793, 8 Spec/strep (+) shoots
  No. of shoots Gly 50 uM(+): 0
[6]; pMON38796, 4 Spec/strep (+) shoots
  No. of shoots Gly 50 uM(+): 0
[6]; pMON38797 (Wild), 2 Spec/strep (+) shoots
  No. of shoots Gly 50 uM(+): 0
[6]; pMON38798, 6 Spec/strep (+) shoots
  No. of shoots Gly 50 uM(+): 6
[6]; pMON45201, 9 Spec/strep (+) shoots
  No. of shoots Gly 50 uM(+): 3
[7]; line pMON10154 (nuclear CP4 control) extract, No gly: 19.0
  SPECIFIC ACTIVITY (nmol/min/mg) +1 mM gly: 18.4 nmol/min/mg
[7]; line pMON38773 extract, No gly: 16.7
  SPECIFIC ACTIVITY (nmol/min/mg) +1 mM gly: 6.7 nmol/min/mg
[8]; Wild-type plant extract, No gly: 3.4
  SPECIFIC ACTIVITY (nmol/min/mg) +1 mM gly: 0 nmol/min/mg
[8]; line pMON30123 extract, No gly: 4.0
  SPECIFIC ACTIVITY (nmol/min/mg) +1 mM gly: 0 nmol/min/mg
[8]; line pMON30130 extract, No gly: 6.2
  SPECIFIC ACTIVITY (nmol/min/mg) +1 mM gly: 0 nmol/min/mg
[8]; line pMON38798 extract, No gly: 17.2
  SPECIFIC ACTIVITY (nmol/min/mg) +1 mM gly: 14.7 nmol/min/mg
[8]; line pMON45204 extract, No gly: 339.9
  SPECIFIC ACTIVITY (nmol/min/mg) +1 mM gly: 371.8 nmol/min/mg
[9]; [16]
  Reproductive tolerance (oz/acre): 64 oz/acre
  Vegetative tolerance (oz/acre): 128 oz/acre
[9]; [17]
  Reproductive tolerance (oz/acre): 0 oz/acre
  Vegetative tolerance (oz/acre): 0 oz/acre
[9]; [18]
  Reproductive tolerance (oz/acre): 0 oz/acre
  Vegetative tolerance (oz/acre): 0 oz/acre
[9]; [19]
  Reproductive tolerance (oz/acre): 16 oz/acre
  Vegetative tolerance (oz/acre): 32 oz/acre
[9]; [20]
  Reproductive tolerance (oz/acre): 16 oz/acre
  Vegetative tolerance (oz/acre): 32 oz/acre
[9]; [21]
  Reproductive tolerance (oz/acre): 32 oz/acre
  Vegetative tolerance (oz/acre): 32 oz/acre
[9]; subsequent experiments with additional transformed transplastomic lines
  glyphosate level tolerated: 64 oz/acre

## hGH: Human Growth Hormone expressed from tobacco plastids (pMON38794), tested as pH adjusted and centrifuged leaf extract
[10]
  bioactivity: absorbance vs hGH concentration: sigmoidal shape

Reference: patent US6492578B1, “Expression of herbicide tolerance genes in plant plastids” (Calgene LLC, priority 1998, dated 2002)
